Data taken from EP4700022A1, “CYP11A1 INHIBITORS AND USE THEREOF” (Xizang Haisco Pharmaceutical Co., Ltd., priority 2023, dated 2024).

Columns and labels:
[1] = Pharmacokinetic test in mice; assay type: in vivo; conditions: mouse, male ICR mice, plasma
Procedure: 4.1. Experimental animals: Male ICR mice, 20-25 g, 6 mice/compound, purchased from Chengdu Dossy Experimental Animals Co., Ltd.
4.2 Experimental design: on the day of the experiment, the ICR mice were randomly grouped according to their body weights. […] Table 5. Administration information
vehicle for intravenous administration: 5% DMA+5% HS-15+90% NS; vehicle for intragastric administration: 0.5% MC
Before and after administration, 0.06 mL of blood was taken from the orbit under isoflurane anesthesia and placed in an EDTAK2 centrifuge tube. The tube was centrifuged at 5000 rpm at 4°C for 10 min, and plasma was collected. […] Before analysis and detection, all samples were stored at -80°C, and the samples were quantitatively analyzed by LC-MS/MS. Table 6. Pharmacokinetic parameters of test compounds in plasma of mice

[2] = test system: pregnenolone level in NCI-H295R cells; experiment: cells; assay type: cell-based; conditions: Homo sapiens, 72 h, read-out: Pregnenolone level in H295R (Elisa) IC50 nM
Procedure: 2. The purpose of the experimental study was intended to detect the pregnenolone level in the NCI-H295R cells by adopting the Enzyme linked immunosorbent assay (ELISA), so as to evaluate the inhibitory effects of the compounds on the pregnenolone level in the NCI-H295R cells.
The H295R cells were purchased from ATCC (CRL-2128), the cell complete medium contained DMEM: F12+ 10% FBS +0.00625 mg/ml insulin+0.00625 mg/mL transferrin+6.25 ng/mL selenium+1.25 mg/mL BSA+0.00535 mg/mL linoleic acid, and the cells were cultured in a 37°C, 5% CO2 incubator. The cells in the exponential growth phase were collected, and cultured in a cytokine-free medium (phenol red 1640-free +1% PS+10% css FBS+1.25 mg/mL BSA +0.00625 mg/mL insulin+0.00625 mg/mL transferrin+6.25 ng/mL selenium+0.00535 mg/mL linoleic acid) for 3 days. The cells in the exponential growth phase were collected on the third day. The cell suspension was adjusted with a cytokine-free medium to a corresponding concentration and plated at 60000 cells/well, with the volume being 90 µL/well. Subsequently, 10 µL of the compounds at different concentrations was added and the plate was incubated in a CO2 incubator for 3 days. After the incubation was completed, the cell culture supernatant was collected and centrifuged at 2°C-8°C at 800×g for 10 min. The resulting supernatant was collected. Determination was carried out according to the operation instructions for pregnenolone Elisa kit (Antibodies-A73791), and the OD450 signal was read.
2.1 Standard curve plotting. The standard concentration was taken as the abscissa and the OD450 value as the ordinate, the coordinate points of various standards were connected with a smooth line and a curve was fitted according to the four parameter logistic (4-PL) method.
2.2 Sample quantification: The corresponding concentration (CONC) of testosterone/pregnenolone in the sample was calculated using the absorbance value of the sample and the standard curve. According to formula (2), the inhibition rate of the compound at various concentrations was calculated, and S-shaped concentration curves were plotted and the IC50 values (i.e., concentration of the compound at which the inhibition rate was 50%) were calculated using a three parameter non-linear regression model in Graphpad Prim 8.0 software. CONC cpd was the concentration of the treated group, and CONC ctrl was the average concentration value of the solvent control group. Inhibition rate% = 100%-CONCepd /CONCctrl × 100% [formula]

[3] = test system: testosterone level in NCI-H295R cells; experiment: cells; assay type: cell-based; conditions: Homo sapiens, 72 h, read-out: IC50/nM
Procedure: 1. The purpose of the experimental study was intended to detect the testosterone level in the NCI-H295R cells by adopting the Enzyme linked immunosorbent assay (ELISA), so as to evaluate the inhibitory effects of the compounds on the testosterone level in the NCI-H295R cells. The H295R cells were purchased from ATCC, the cell complete medium contained DMEM: F12+ 10% FBS +0.00625 mg/ml insulin +0.00625 mg/ml transferrin+6.25 ng/ml selenium +1.25 mg/ml BSA+0.00535 mg/ml linoleic acid, and the cells were cultured in a 37°C, 5% CO2 incubator. The cells in the exponential growth phase were collected, and cultured in a cytokine-free medium (phenol red 1640-free +1% PS+10% css FBS+1.25 mg/ml BSA +0.00625 mg/ml insulin + 0.00625 mg/ml transferrin+6.25 ng/ml selenium+0.00535 mg/ml linoleic acid) for 3 days. The cells in the exponential growth phase were collected on the third day. The cell suspension was adjusted with a cytokine-free medium to a corresponding concentration and plated at 60000 cells/well, with the volume being 90 µL/well. Subsequently, 10 µL of the compounds at different concentrations was added and the plate was incubated in a CO2 incubator for 3 days. After the incubation was completed, according to the operation instructions for testosterone Elisa kit (Beyotime, PT872), 50 µL of the cell culture supernatant was collected from each well and centrifuged at 500 g for 5 min at room temperature and then the resulting supernatant was collected. The samples were added to the corresponding wells at 25 µl/well, and then formulated horseradish peroxidase labeled testosterone was added at 75 µl/well. The mixture was fully mixed for 10 seconds. The reaction wells were sealed with a plate-sealing film (white) and the mixture was incubated at room temperature in the dark for 120 min. The plate was washed 3 times with a volume of 300 µl per well, and then placed onto thick absorbent paper and dried. Chromogenic reagent TMB solution was added at 100 µl/well. The reaction wells were sealed with a plate-sealing film (white) and the mixture was incubated at room temperature in the dark for 15-20 min. Subsequently, a termination solution was added at 50 µl/well, and after the mixture was fully mixed, the absorbance value OD450 was immediately measured. The absorbance readings were processed using Graphpad Prim 8.0 software and S-shaped concentration curves were plotted and the IC50 values were calculated using a four-parameter non-linear regression model. The results were processed according to formula (1), the inhibition rate of the compound at different concentrations was calculated, and the IC50 value of the compound with an inhibition rate of 50% was calculated using Graphpad Prim 8.0 software, wherein RLU compound was the readout of the treated group, and RLU control was the average value of the solvent control group. Inhibition rate% = 100-RLUcompound /RLUcontrol × 100 [formula] Table 1. Inhibitory activity on testosterone level in NCI-H295R cells

[4] = Pharmacokinetic test in beagle dogs; assay type: in vivo; conditions: dog, male beagle dogs, plasma
Procedure: Experimental animals: male beagle dogs, about 8-11 kg, 6 beagle dogs/compound, purchased from Beijing Marshall Biotechnology Co., Ltd.
Experimental method: on the day of the experiment, the beagle dogs were randomly grouped according to their body weights. The animals were fasted with water available for 12-14 h one day before the administration, and were fed 4 h after the administration. Administration was performed as per Table 7.
Test compounds: example compounds and control compounds. Table 7. Administration information
Before and after the administration, 1 ml of blood was taken from the jugular veins or limb veins, and placed in an EDTAK2 centrifuge tube. Centrifugation was performed at 5000 rpm at 4°C for 10 min, and plasma was collected. The blood collection time points for both the intravenous administration group and the intragastric administration group were: 0, 5 min, 15 min, 30 min, 1 h, 2 h, 4 h, 6 h, 8 h, 10 h, 12 h, 24 h, 48 h, and 72 h. Before analysis and detection, all samples were stored at -80°C. The samples were analyzed quantitatively by LC-MS/MS. Table 8. Pharmacokinetic parameters of test compounds in plasma of beagle dogs

[5] = po, intragastric administration (10 mg/kg)
[6] = intravenous administration (2.5 mg/kg)
[7] = po, intragastric administration (3 mg/kg)
[8] = intravenous administration (1 mg/kg)

Work on `[2H]C([2H])([2H])C(=O)N[C@H]1CC[C@H](c2cc3oc(CN4Cc5ccc(C(F)(F)F)cc5C4)cc(=O)c3o2)CC1` [Compound 58] yielded an AUC(0-t) [1, 5] of 9460 ng·h/mL, a half-life [1, 5] of 2.08 h and an AUC(0-t) [1, 6] of 2960 ng·h/mL. For the same compound, the clearance [1, 6] was 14.2 mL/min/kg, the half-life [1, 6] was 2.77 h and the Vd ([1]; intravenous administration (2.5 mg/kg), read-out: Vdss) was 1.34 L/kg. It also gave an IC50 [2] of 160 nM, an IC50 [3] of 57 nM and an AUC(0-t) [4, 7] of 24800 ng·h/mL. It also gave a half-life [4, 7] of 6.79 h, an AUC(0-t) [4, 8] of 14000 ng·h/mL and a clearance [4, 8] of 1.24 mL/min/kg. It also gave a half-life [4, 8] of 10.2 h and a Vd ([4]; intravenous administration (1 mg/kg), read-out: Vdss) of 0.87 L/kg.
